Positions of bridges follow the written chain, without caps; N, C: chain ends. Residues, ends and D or L forms follow the SMILES beside them.
What was measured:
[1] = molecular target: Nicotinic acetylcholine receptor alpha9/alpha10 (Rattus norvegicus, UniProt P43144+Q9JLB5); assay: Inhibition of rat alpha9/alpha10 nAChR expressed in Xenopus oocytes assessed as inhibition of acetylcholine-induced currents after 300 secs by two-electrode voltage clamp assay; type: cell-based, Oocyte
[2] = Inhibition of human alpha9 rat alpha10 nAChR expressed in Xenopus oocytes assessed as inhibition of acetylcholine-induced currents after 300 secs by two-electrode voltage clamp assay; type: cell-based; settings: Oocyte
[3] = Selectivity ratio of IC50 for human alpha9 rat alpha10 nAChR to IC50 for rat alpha9/alpha10 nAChR
Oocyte = assay: Inhibition of human alpha9 rat alpha10 nAChR expressed in Xenopus oocytes assessed as inhibition of acetylcholine-induced currents at 100 nM after 300 secs by two-electrode voltage clamp assay; type: cell-based

Sequence of Nicotinic acetylcholine receptor alpha9/alpha10 (P43144 whole entry): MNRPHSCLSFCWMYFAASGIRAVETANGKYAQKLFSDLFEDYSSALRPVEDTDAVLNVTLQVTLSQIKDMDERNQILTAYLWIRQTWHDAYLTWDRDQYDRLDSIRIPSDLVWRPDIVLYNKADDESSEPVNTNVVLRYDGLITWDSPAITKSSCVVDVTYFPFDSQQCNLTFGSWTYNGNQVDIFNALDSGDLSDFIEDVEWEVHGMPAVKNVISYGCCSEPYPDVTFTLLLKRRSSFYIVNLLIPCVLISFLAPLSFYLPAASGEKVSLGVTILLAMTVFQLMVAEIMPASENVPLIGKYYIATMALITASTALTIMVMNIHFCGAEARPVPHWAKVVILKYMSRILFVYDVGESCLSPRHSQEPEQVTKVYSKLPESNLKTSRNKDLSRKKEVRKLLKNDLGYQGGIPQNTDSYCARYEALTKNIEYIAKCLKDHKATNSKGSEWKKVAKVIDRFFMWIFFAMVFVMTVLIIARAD
Sequence of Nicotinic acetylcholine receptor alpha9/alpha10 (Q9JLB5 whole entry): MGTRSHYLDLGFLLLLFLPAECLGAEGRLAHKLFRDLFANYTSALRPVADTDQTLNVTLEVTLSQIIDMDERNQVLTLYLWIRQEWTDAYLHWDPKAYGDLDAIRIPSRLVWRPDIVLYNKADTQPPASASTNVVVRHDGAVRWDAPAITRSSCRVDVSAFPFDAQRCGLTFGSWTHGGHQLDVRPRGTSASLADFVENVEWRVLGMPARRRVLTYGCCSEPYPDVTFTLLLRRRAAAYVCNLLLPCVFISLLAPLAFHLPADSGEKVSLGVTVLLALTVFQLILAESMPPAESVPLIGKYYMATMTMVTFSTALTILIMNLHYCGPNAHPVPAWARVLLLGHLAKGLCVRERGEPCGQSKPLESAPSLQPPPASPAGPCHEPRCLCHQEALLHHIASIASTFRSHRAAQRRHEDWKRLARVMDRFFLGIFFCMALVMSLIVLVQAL

SMILES	IC50 [1] [nM]	IC50 [2] [nM]	Ratio IC50 [3]	inhibition (Oocyte) [%]
CC[C@H](C)[C@@H]1NC(=O)[C@H](CCC(=O)O)NC(=O)[C@@H]2CCCN2C(=O)[C@H](Cc2cnc[nH]2)NC(=O)[C@H](CC(=O)O)NC(=O)[C@H](Cc2ccc(O)cc2)NC(=O)[C@H](CC(N)=O)NC(=O)[C@@H]2CSSC[C@H](NC(=O)CN)C(=O)N[C@@H](CSSC[C@@H](C(=O)O)NC1=O)C(=O)N[C@@H](CO)C(=O)N[C@@H](CC(=O)O)C(=O)N1CCC[C@H]1C(=O)N[C@@H](CCCNC(=N)N)C(=O)N2	70	975	14	–
CC[C@H](C)[C@@H]1NC(=O)[C@H](CCC(=O)O)NC(=O)[C@@H]2CCCN2C(=O)[C@H](Cc2cnc[nH]2)NC(=O)[C@H](CC(=O)O)NC(=O)[C@H](Cc2ccccc2)NC(=O)[C@H](CC(N)=O)NC(=O)[C@@H]2CSSC[C@H](NC(=O)CN)C(=O)N[C@@H](CSSC[C@@H](C(=O)O)NC1=O)C(=O)N[C@@H](CO)C(=O)N[C@@H](CC(=O)O)C(=O)N1CCC[C@H]1C(=O)N[C@@H](CCCNC(=N)N)C(=O)N2 (H-GCCSDPRCNFDHPEIC-OH; disulfide 2-8, 3-16)	500	763	–	10
CC[C@H](C)[C@@H]1NC(=O)[C@H](CCC(=O)O)NC(=O)[C@@H]2CCCN2C(=O)[C@H](Cc2cnc[nH]2)NC(=O)[C@H](CC(=O)O)NC(=O)[C@H](Cc2c[nH]c3ccccc23)NC(=O)[C@H](CC(N)=O)NC(=O)[C@@H]2CSSC[C@H](NC(=O)CN)C(=O)N[C@@H](CSSC[C@@H](C(=O)O)NC1=O)C(=O)N[C@@H](CO)C(=O)N[C@@H](CC(=O)O)C(=O)N1CCC[C@H]1C(=O)N[C@@H](CCCNC(=N)N)C(=O)N2 (H-GCCSDPRCNWDHPEIC-OH; disulfide 2-8, 3-16)	43	33	–	80
